Results published in US9250240B2, “Immunoreactive Ehrlichia p120/p140 epitopes and uses thereof” (Research Development Foundation, priority 2009, dated 2016).
No end group written: not given here.

Key:
[1] = system: E. chaffeensis antibodies in HME patient sera; assay: ELISA evaluation of E. chaffeensis immunodeterminants for serologic diagnosis of HME; type: binding, human
Procedure: ELISA. For epitope mapping, an ELISA was performed as previously described (Luo et al., 2009). For serologic diagnosis evaluation, an Immobilizer amino plate (Nunc, Roskilde, Denmark) was used to increase the signal-to-noise ratio. Immobilizer amino plates were coated with synthetic peptides or recombinant proteins (0.5 μg/well; 50 μl) suspended in 100 mM sodium carbonate buffer (pH 9.6) and incubated with gentle agitation at room temperature for 1 to 2 h or overnight at 4° C. The wells were washed four times with 300 μl phosphatebuffered saline containing 0.05% (vol/vol) Tween 20 (PBST; pH 7.2) by a plate washer (SkanWasher 400; Molecular Devices, Sunnyvale, Calif.). Dog or human sera diluted (1:100 or 1:200, respectively) in PBST were added to each well (50 μl) and incubated at room temperature for 1 h. The plates were washed again, and 50 μl alkaline phosphatase-labeled goat anti-dog or -human IgG(H+L) secondary antibody (Kirkegaard & Perry Laboratories, Gaithersburg, Md.) diluted (1:5,000) in PBST was added and incubated at room temperature for 1 h. After the addition of substrate (BluePhos; Kirkegaard & Perry Laboratories), plates were incubated in the dark for 30 min, color development was determined on a microplate reader (VersaMax; Molecular Devices, Sunnyvale, Calif.) at A650, and data were analyzed by SoftMax Pro version 4.0 (Molecular Devices). Optical density (OD) readings represent the mean OD value for three wells (±standard deviations) after subtracting the OD value of the negative control wells. All sera negative for E. chaffeensis by IFA had readings of <0.05 OD unit; therefore, a positive sample threshold was set at >0.1 OD unit. In addition, a reading of 0.1 to 0.5 OD unit was considered a weak positive, and a reading of >0.5 OD unit was considered a strong positive. IFA. The anti-E. chaffeensis antibody status in HME patient sera was determined as described previously (McBride et al., 2003). […] The statistical differences between experimental groups were assessed with the two-tailed Student t test, and significance was indicated by a P value of <0.05. […]

[2] = system: antibodies in anti-E. canis dog sera; assay: ELISA of overlapping synthetic peptides spanning the E. canis p140 repeat unit; type: binding; conditions: four anti-E. canis sera from naturally infected dogs (nos. 2160, 6, 10, 18)
Procedure: ELISA. Enzyme-linked immunosorbent assay (ELISA) plates (MaxiSorp; Nunc, Roskilde, Denmark) were coated (0.5 μg/well; 50 μl) with recombinant proteins or synthetic peptides suspended in phosphate-buffered saline (pH 7.4). Proteins and peptides were absorbed for 1 h at room temperature with gentle agitation, and subsequently washed thrice with 200 μl Tris-buffered saline containing 0.2% Tween 20 (TBST). Plates were blocked with 100 μl 10% equine serum (Sigma) in TBST for 1 h at room temperature with agitation, and washed. Convalescent dog or human sera diluted (1:100 or 1:200, respectively) in 10% equine serum-TBST were added to each well (50 μl) and incubated at room temperature for 1 h with gentle agitation. […] The plates were incubated in the dark for 30 min with agitation, and color development was determined on a microplate reader (VersaMax; Molecular Devices, Sunnyvale, Calif.) at A650 and data analyzed by SoftmaxPro v4.0 (Molecular Devices). Optical density (OD) readings represent the mean OD for three wells (±standard deviations) after subtracting the OD value of the buffer-only wells. A reading >0.2 OD unit above the negative control absorbance was considered positive for all samples. In addition, a reading 0.2-0.5 OD unit above the control absorbance was considered a weak positive, and a reading >0.5 OD unit above the control absorbance was considered a strong positive. […]

[3] = 31 HME patient sera (IFA titers 64 to 8192), positive = 0.1 OD unit above negative control

Row | Substance | % of patients with detectable antibodies [1, 3] [%] | No. of patients with detectable antibodies [1, 3] | specificity for diagnosing HME ([1]; as worded in the summary) [%] | Immunoreactivity by ELISA [2]
1 | TRP32 peptides: equal (w:w) mixture of TRP32-R3 and TRP32-R4 peptides (chain 1 SDLHGSFSVELFDPFKEAVQLGNDLQQSSD; chain 2 SDSHEPSHLELPSLSEEVIQLESDLQQSSN; not fully specified) | 87.1 | 27 | 87.1 | 
2 | p140R-3: 11-mer overlapping synthetic peptide of the E. canis p140 repeat unit (SKEESTPEVKA) |  |  |  | virtually nonreactive
